Laboratory results taken from PMC3025922 (BMC Biology, 2010).
pIC50: −log10 of the molar value. Values joined by “and” are separate entries in the source; they are usually repeats but may differ in a detail not shown here. Equal entries are not always repeated.

Key:
[1] = test system: PC3 cells; experiment: Cell cycle analysis by flow cytometry, PC3; assay type: cell-based, human
Procedure: (§1) Cells were exposed to SMIPs (40 μM) for 24 h and 48 h. Cells were trypsinized, washed with PBS and suspended in 600 μL PBS. Cells were fixed by adding 1.4 mL cold absolute ethanol and kept at -20°C for at least 12 h. After washing once with PBS, the cells were resuspended in 250 μL PBS containing 2.5 μg RNAse A and incubated for 45 min at room temperature. Staining was done by adding 40 μg/mL of propidium iodine followed by incubation for 15 min at room temperature. DNA-bound fluorescence was read at 564 to 606 nm using FACSort and FACSCanto flow cytometers (BD Biosciences) at the Flow Cytometry Facility of the Sanford-Burnham Medical Research Institute. Distribution of cells in the different cell cycle phase was determined with ModFit LT 3.2.1 or FlowJo 8.6 software. Aggregates were excluded from the analysis manually using pulse shape or identified by automated modelling in ModFit LT.

[2] = test system: LNCaP-S14 cells; experiment: Cell cycle distribution in LNCaP-S14 transfected with siRNAs for p27 and p21; assay type: cell-based, human
Procedure: as §1
LNCaP-S14 cells were seeded in 6 cm dishes or six-well-plates coated with poly-lysine the day before transfection. 10-20 nM of siRNA was transfected using DharmaFECT 3 (Thermo Scientific) according to the manufacturer's instructions. Briefly, siRNAs were dissolved in siRNA suspension buffer (Quiagen) at 20 μM, heated to 90°C for 1 min and incubated at 37°C for 1 h. siRNAs were added to the DharmaFECT 3 reagent diluted in Optimem media (1:100) and incubated for 20 min at room temperature. The mix was added to the cells for 24 h. Treatment with SMIPs (40 μM) or vehicle was carried on for another 24 h. Cells were obtained for FACS or lysed for immunoblotting analysis as described above. Untransfected cells as well as cells transfected with non-specific siRNA were used as controls. Silencer® Negative Control siRNA No.1 from Ambion (Applied Biosciences, CA, USA) was used as non-specific control siRNA. siRNA target sequences for p27 and p21 synthesized by IDT (Integrated DNA Technologies Inc, Iowa, USA) were as follows; p27 siRNA: […], and p21 siRNA: […] [56].

[3] = test system: p27 protein levels in LNCaP cells; experiment: Immunoblot quantification of p27, LNCaP; assay type: cell-based, human
Procedure: (§2) Total cell lysate from cells treated with vehicle (DMSO) or compounds were obtained by incubating cells in lysis buffer (25 mM Tris-HCl pH 7.4, 150 mM NaCl, 0.5% Triton X-100, protease inhibitors) for 15 min at 4°C. The supernatant was collected by centrifugation and the amount of protein was determined with a Bio-Rad protein assay (Bio-Rad) using BSA as standard. Equal amounts of protein were subjected to SDS-PAGE (4%-20% gels, Invitrogen) and transferred to PVDF membranes. The membranes were blocked with TBST (50 mM Tris-HCl pH 7.5, 150 mM NaCl, 0.05% Tween-20) containing 5% non-fat dry milk or bovine serum albumin (BSA) for 1 h at room temperature, followed by incubation in primary antibodies 4°C overnight. Membranes were washed and incubated with secondary antibodies conjugated to HRP (Jackson ImmunoResearch Laboratories) for 1 h at room temperature. Signals were visualized using the ECL Western Blotting Substrate (Pierce Biotechnology, IL, USA) according to the manufacturer's instructions. Membranes were stripped using Restore™ Western Blot Stripping Buffer (Pierce Biotechnology). Films were scanned and quantification of the bands was performed using Image J software http://rsbweb.nih.gov/ij/.

[4] = test system: p27 protein levels in PC3 cells; experiment: Immunoblot quantification of p27, PC3; assay type: cell-based, human
Procedure: as §2

[5] = test system: p21 protein levels in HeLa cells; experiment: Immunoblot quantification of p21, HeLa; assay type: cell-based, human
Procedure: as §2

[6] = test system: LNCaP-S14 cells; experiment: MTT cytotoxicity assay, LNCaP-S14; conditions: Homo sapiens, 72 h, read-out: IC50 (MTT cytotoxicity)
Procedure: LNCaP-S14 (10,000 cells), PC3, DU145 or IMR90 cells (5000 cells) were seeded in 96-well plates and treated with increasing concentrations of the respective SMIPs for 72 h. Cell viability was assessed using the MTT cell proliferation assay (ATCC®, Middlesex, UK) according to the manufacturer's protocol. IC50 was calculated using the BioDataFit 1.02 software http://www.changbioscience.com/stat/ec50.html.

CC(C)(C)c1cc2cc(NC(=O)c3cccs3)ccc2[nH]1 [SMIP001] was tested, and the “Cell cycle distribution G1” value [1] was 48.6 and 57.5, the “Cell cycle distribution G2” value [1] was 29.7 and 27.8 and the “Cell cycle distribution S” value [1] was 20.4 and 13.6. The “% G1” value [2] was 71.86% and 75.76% and 75.13% and 72.22%, the “% G2” value [2] was 21.07% and 14.54% and 18.37% and 16.74% and the “% S” value [2] was 7.07% and 9.70% and 6.50% and 11.04%. The “p27 protein level (immunoblot, DMSO = 1.0)” value [3] was 1.5 ± 0.7, the “p27 protein level (immunoblot, DMSO = 1.0)” value [4] was 1.3 ± 0.6 and the “p21 protein level (immunoblot, DMSO = 1.0)” value [5] was 1.1 ± 0.2. For the same compound, the pIC50 [6] was 5.33.
